# In paper PMC7401255, “Osirisynes G-I, New Long-Chain Highly Oxygenated Polyacetylenes from the Mayotte Marine Sponge Haliclona sp” (Marine Drugs, 2020):
# Where two headings read alike, the source gives them in different places.
# Legend:
# Yeast proteasome = target: T1, Yeast proteasome (Saccharomyces cerevisiae, UniProt P30656); assay: Proteasome inhibition assay (fluorescence intensity, Suc-Leu-Leu-Val-Tyr-AMC); assay type: biochemical; conditions: 9 nM yeast proteasome, 5 µM substrate, preincubated 90 min, 22 °C
# T1 construct: TUM Groll group (academic supplier)
# Experimental: The assay was carried out at room temperature (22 °C) using Corning 4514 black low volume 384-well plates. All measurements were performed in duplicate and the final DMSO concentration was 3.3%. The assay buffer contained 100 mM Tris pH 7.5 and 1 mM MgCl2. (Table 5).
# For the positive control, 9.5 µL protein dilution (final concentration 9 nM) were mixed with 0.5 µL of compound dilution ranging from 30–0.015 μM (assay end conc. 1000–0.5 nM). For the selected hits, 9.5 µL protein dilution (final concentration 9 nM) were mixed with 0.5 µL of compound dilution ranging from 1–0.0005 mg/mL (assay end conc. 33–0.016 μg/mL) and preincubated for 90 min. Then, 5 µL substrate mix was added (final concentration 5 µM) and incubated for 60 min. The assay plates were measured in Fluorescence mode on a Tecan M1000 plate reader (ex 380 nm, em 460 nm). The IC50 was calculated using XLfit.
# For assay set-up and validation, the tool compound ONX-0914 was utilized. For this tool compound, a dose-dependent decrease in the Fluorescence signal was observed similar to previous results.
# FynB wt = target: T2, FynB wt (Homo sapiens, UniProt P06241); assay: FynB kinase inhibition assay (ADP-Glo Kinase Assay); assay type: biochemical
# T2 construct: Crelux construct CTX4, PC09815-1
# T2 sequence (P06241 whole entry): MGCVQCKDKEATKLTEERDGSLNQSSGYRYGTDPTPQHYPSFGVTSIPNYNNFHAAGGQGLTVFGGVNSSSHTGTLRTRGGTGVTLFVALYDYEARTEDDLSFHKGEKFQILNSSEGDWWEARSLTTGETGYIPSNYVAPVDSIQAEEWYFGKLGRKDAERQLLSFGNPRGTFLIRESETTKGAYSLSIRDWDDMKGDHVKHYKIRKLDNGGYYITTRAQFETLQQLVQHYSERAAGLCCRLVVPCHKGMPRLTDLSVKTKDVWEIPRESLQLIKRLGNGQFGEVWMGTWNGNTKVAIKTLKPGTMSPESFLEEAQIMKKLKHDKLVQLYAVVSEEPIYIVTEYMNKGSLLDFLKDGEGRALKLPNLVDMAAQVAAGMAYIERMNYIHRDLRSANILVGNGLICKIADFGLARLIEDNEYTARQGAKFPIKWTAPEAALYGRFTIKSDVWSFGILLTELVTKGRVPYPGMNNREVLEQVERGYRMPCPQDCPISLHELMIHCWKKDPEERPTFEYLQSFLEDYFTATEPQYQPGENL
# Experimental: The assay buffer contained 20 mM Tris pH 8.0, 170 mM NaCl, and 10 mM MgCl2.
# For the selected hits, 9.5 µL protein dilution (final concentration 200 nM) were mixed with 0.5 µL of compound dilution ranging from 1–0.0005 mg/mL (assay end conc. 33–0.016 μg/mL) and preincubated for 90 min.
# Then, 5 µL substrate/ATP mix was added (final concentration substrate 10 µM and ATP 100 µM) and the assay was incubated for another 2 h. Afterwards, 5 µL of the 15 µL assay reaction were transferred to new wells and 5 µL ADP Glo Reagent was added to terminate the kinase reaction and deplete the remaining ATP. After 40 min, 10 µL of Kinase Detection Reagent was added to convert ADP to ATP and allow the newly synthesized ATP to be measured using a luciferase/luciferin reaction. After another 40 min, the assay plates were measured in Luminescence mode on a Tecan M1000 plate reader. The light generated, i.e., luminescent signal, is proportional to the ADP concentration produced and is correlated with kinase activity. The IC50 was calculated using XLfit.
# CDK7 = target: T3, CDK7 (Homo sapiens, UniProt P50613); assay: CDK7 inhibition assay (ADP-Glo Kinase Assay); assay type: biochemical; conditions: for IC50: 300 nM CDK7, 30 µM CDKtide, 125 µM ATP, preincubated 120 min, 22 °C
# T3 construct: Crelux construct CZY-3, PC09891
# T3 sequence (P50613 whole entry, species assumed): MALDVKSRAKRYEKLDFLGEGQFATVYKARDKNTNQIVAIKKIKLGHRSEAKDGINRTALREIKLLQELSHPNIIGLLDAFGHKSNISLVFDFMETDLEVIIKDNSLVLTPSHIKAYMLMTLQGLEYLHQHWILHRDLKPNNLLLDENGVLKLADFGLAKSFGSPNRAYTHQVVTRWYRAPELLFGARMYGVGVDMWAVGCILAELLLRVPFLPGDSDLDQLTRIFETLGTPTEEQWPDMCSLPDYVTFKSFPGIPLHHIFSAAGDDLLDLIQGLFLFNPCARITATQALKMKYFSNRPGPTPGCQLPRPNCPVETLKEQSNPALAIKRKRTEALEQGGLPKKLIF
# Experimental: The assay was carried out at room temperature (22 °C) using Corning white low volume 384-well plates. […]. The assay buffer contained 20 mM Hepes pH 7.0, 150 mM NaCl, and 10 mM MgCl2. (Table 4).
# For the positive control, 9.5 µL protein dilution (final concentration 300 nM) were mixed with 0.5 µL of compound dilution ranging from 990–0.006 μM (assay end conc. 33–0.0002 μM). For the selected hits, 9.5 µL protein dilution (final concentration 300 nM) were mixed with 0.5 µL of compound dilution ranging from 1–0.0005 mg/mL (assay end conc. 33–0.016 μg/mL) and preincubated for 120 min.
# Then, 5 µL substrate/ATP mix was added (final concentration substrate 30 µM and ATP 125 µM) and the assay was incubated for another 2 h. Afterwards, 5 µL of the 15 µL assay reaction were transferred to new wells and 5 μL ADP Glo Reagent was added to terminate the kinase reaction and deplete the remaining ATP. After 40 min, 10 µL of Kinase Detection Reagent was added to convert ADP to ATP and allow the newly synthesized ATP to be measured using a luciferase/luciferin reaction. After another 40 min, the assay plates were measured in Luminescence mode on a Tecan M1000 plate reader.
# The light generated, i.e., luminescent signal, is proportional to the ADP concentration produced and is correlated with kinase activity. The IC50 was calculated using XLfit.
# Na+/K+ ATPase = system: Na+/K+ ATPase; design: method as in doi:10.1016/S0040-4039(00)96493-1; conditions: cited from earlier work
# [1] = system: reverse transcriptase (RT); design: method as in doi:10.1016/S0040-4039(00)96493-1; conditions: cited from earlier work
# [2] = 200 nM FynB wt, 10 µM Fyn substrate, 100 µM ATP, preincubated 90 min, 22 °C, read-out: IC50 FynB Kinase Inhibition
IC50 (Yeast proteasome) [µM],IC50 (FynB wt; [2]) [µM],Structure (SMILES),Fyn kinase inhibition (in words) (FynB wt),CDK7 inhibition (in words) (CDK7),IC50 (CDK7) [µM],Na+/K+ ATPase inhibitory activity (in words) (Na+/K+ ATPase),reverse transcriptase (RT) inhibitory activity (in words) [1],IC50 (FynB wt) [µM]
> 41,> 41,"C#CC(O)/C=C/C(O)CCCC(O)CC#CC(O)C#CC(O)CCCC(O)/C=C/CCCCCC(=O)CCCCCCCCCCCCCC(O)C(O)C#CC(=O)O (stereo not shown) [Osirisyne A (4), osirisyne A]",–,–,–,–,–,–
0.26,18.4,"C#CC(O)/C=C/C(O)CCCC(O)CC#CC(O)C#CCCCCC(O)/C=C/CCCCCC(=O)CCCCCCCCCCCCCC(O)C(O)C#CC(=O)O (stereo not shown) [Osirisyne B (5), osirisyne B]",inhibited,inhibited,9.13,–,–,–
> 40.2,> 40.2,"C#CC(O)/C=C/C(O)CCCC(O)CC#CC(O)C#CC(O)CCCC(O)/C=C/CCCCCC(=O)CCCCCCCCCCCCC(O)C(O)C(O)C#CC(=O)O (stereo not shown) [Osirisyne G (1), osirisyne G]",–,–,–,–,–,–
–,–,"C#CC(O)/C=C/C(O)CCCC(O)CC#CC(O)C#CCCCCC(O)/C=C/CCCCCC(=O)CCCCCCCCCCCCC(O)C(O)C(O)C#CC(=O)O (stereo not shown) [Osirisyne H (2), osirisyne H]",–,–,–,–,–,> 41
> 41,> 41,"C#CC(O)/C=C/C(O)CCCC(O)CC#CC(O)C#CC(O)CCCC(O)/C=C/CCCC(O)/C=C/CCCCCCCCCCCCCC(O)C(O)C#CC(=O)O (stereo not shown) [Osirisyne I (3), osirisyne I]",–,–,–,–,–,–

Structure (SMILES),IC50 (Yeast proteasome) [µM],IC50 (FynB wt; [2]) [µM],Fyn kinase inhibition (in words) (FynB wt),CDK7 inhibition (in words) (CDK7),IC50 (CDK7) [µM],Na+/K+ ATPase inhibitory activity (in words) (Na+/K+ ATPase),reverse transcriptase (RT) inhibitory activity (in words) [1],IC50 (FynB wt) [µM]
"C#CC(O)/C=C/C(O)CCCC(O)CC#CC(O)C#CCCCCC(O)/C=C/CCCC(O)/C=C/CCCCCCCCCCCCCC(O)C(O)C#CC(=O)O (stereo not shown) [Osirisyne E (6), osirisyne E]",> 41.8,> 41.8,inhibited,inhibited,> 41.8,inhibitory activities,inhibitory activities,–
